Legend:
[1] = Formation of 1,5-cz-[M(Lig)] from Lig and M^III ions (metal dependent click-zip) (Charts 4, 5); format: physicochemical; settings: MOPS/NaOH buffer pH 7.0; for conversion to 1,5-cz-[M(Lig)], Y^III / conversion to 1,5-cz-[M(Lig)], Sc^III: TD728, TD827 in 50% i-PrOH; for conversion to 1,5-cz-[M(Lig)], Y^III: TD714 sum of two diastereoisomers
[2] = Formation of 1,5-cz-[Ln(Lig)] from Lig and Ln^III ions (metal dependent click-zip), MOPS/NaOH buffer pH 7.0, analytical HPLC (Charts 1, 2); settings: MOPS/NaOH buffer pH 7.0

With C#Cc1cccc(CN2CCN(CC(=O)O)CCN(Cc3cc(C(=O)OC(C)(C)C)cc(CN=[N+]=[N-])n3)CCN(CC(=O)O)CC2)n1 [TD1160] the “conversion to 1,5-cz-[Ln(Lig)] with hydrolysed group in the side chain, Y^III” value ([1]; 1 week at 80° C.) was 90%, the “conversion to 1,5-cz-[M(Lig)], Y^III” value ([1]; 1 week at 80° C.) was 0% and the “conversion to 1,5-cz-[Ln(Lig)] with hydrolysed group in the side chain, Y^III” value ([1]; 1 hour at 80° C.) was 17%. For the same compound, the “conversion to 1,5-cz-[M(Lig)], Y^III” value ([1]; 1 hour at 80° C.) was 1%, the “conversion to 1,5-cz-[Ln(Lig)] with hydrolysed group in the side chain, Lu^III” value ([2]; after 1 week at 80° C.) was 91% and the “conversion to 1,5-cz-[Ln(Lig)], Lu^III” value ([2]; after 1 week at 80° C.) was 0%. The “conversion to 1,5-cz-[Ln(Lig)] with hydrolysed group in the side chain, Lu^III” value ([2]; after 1 hour at 80° C.) was 61%, the “conversion to 1,5-cz-[Ln(Lig)], Lu^III” value ([2]; after 1 hour at 80° C.) was 3% and the “conversion to 1,5-cz-[Ln(Lig)] with hydrolysed group in the side chain, Sm^III” value ([2]; after 1 week at 80° C.) was 85%. The “conversion to 1,5-cz-[Ln(Lig)], Sm^III” value ([2]; after 1 week at 80° C.) was 0%, the “conversion to 1,5-cz-[Ln(Lig)] with hydrolysed group in the side chain, Sm^III” value ([2]; after 1 hour at 80° C.) was 3% and the “conversion to 1,5-cz-[Ln(Lig)], Sm^III” value ([2]; after 1 hour at 80° C.) was 0%. The “conversion to 1,5-cz-[Ln(Lig)] with hydrolysed group in the side chain, Tb^III” value ([2]; after 1 week at 80° C.) was 89%, the “conversion to 1,5-cz-[Ln(Lig)], Tb^III” value ([2]; after 1 week at 80° C.) was 0% and the “conversion to 1,5-cz-[Ln(Lig)] with hydrolysed group in the side chain, Tb^III” value ([2]; after 1 hour at 80° C.) was 9%. For the same compound, the “conversion to 1,5-cz-[Ln(Lig)], Tb^III” value ([2]; after 1 hour at 80° C.) was 0%.
For C#Cc1cccc(CN2CCN(CC(=O)O)CCN(Cc3cc(N(C)C)cc(CN=[N+]=[N-])n3)CCN(CC(=O)O)CC2)n1 [TD1176], the “conversion to 1,5-cz-[M(Lig)], Sc^III” value ([1]; 1 week at 80° C.) was 31%, the “conversion to 1,5-cz-[M(Lig)], Y^III” value ([1]; 1 week at 80° C.) was 95% and the “conversion to 1,5-cz-[M(Lig)], Sc^III” value ([1]; 1 hour at 80° C.) was 6%. For the same compound, the “conversion to 1,5-cz-[M(Lig)], Y^III” value ([1]; 1 hour at 80° C.) was 30%, the “conversion to 1,5-cz-[Ln(Lig)], Ce^III” value ([2]; after 1 week at 80° C.) was 60% and the “conversion to 1,5-cz-[Ln(Lig)], Ce^III” value ([2]; after 1 hour at 80° C.) was 0%. For the same compound, the “conversion to 1,5-cz-[Ln(Lig)], Dy^III” value ([2]; after 1 week at 80° C.) was 96%, the “conversion to 1,5-cz-[Ln(Lig)], Dy^III” value ([2]; after 1 hour at 80° C.) was 20% and the “conversion to 1,5-cz-[Ln(Lig)], Er^III” value ([2]; after 1 week at 80° C.) was 96%. For the same compound, the “conversion to 1,5-cz-[Ln(Lig)], Er^III” value ([2]; after 1 hour at 80° C.) was 46%, the “conversion to 1,5-cz-[Ln(Lig)], Eu^III” value ([2]; after 1 week at 80° C.) was 93% and the “conversion to 1,5-cz-[Ln(Lig)], Eu^III” value ([2]; after 1 hour at 80° C.) was 6%. For the same compound, the “conversion to 1,5-cz-[Ln(Lig)], Gd^III” value ([2]; after 1 week at 80° C.) was 91%, the “conversion to 1,5-cz-[Ln(Lig)], Gd^III” value ([2]; after 1 hour at 80° C.) was 7% and the “conversion to 1,5-cz-[Ln(Lig)], Ho^III” value ([2]; after 1 week at 80° C.) was 96%. For the same compound, the “conversion to 1,5-cz-[Ln(Lig)], Ho^III” value ([2]; after 1 hour at 80° C.) was 31%, the “conversion to 1,5-cz-[Ln(Lig)], La^III” value ([2]; after 1 week at 80° C.) was 73% and the “conversion to 1,5-cz-[Ln(Lig)], La^III” value ([2]; after 1 hour at 80° C.) was 0%. For the same compound, the “conversion to 1,5-cz-[Ln(Lig)], Lu^III” value ([2]; after 1 week at 80° C.) was 96%, the “conversion to 1,5-cz-[Ln(Lig)], Lu^III” value ([2]; after 1 hour at 80° C.) was 85% and the “conversion to 1,5-cz-[Ln(Lig)], Nd^III” value ([2]; after 1 week at 80° C.) was 85%. For the same compound, the “conversion to 1,5-cz-[Ln(Lig)], Nd^III” value ([2]; after 1 hour at 80° C.) was 2%, the “conversion to 1,5-cz-[Ln(Lig)], Pr^III” value ([2]; after 1 week at 80° C.) was 82% and the “conversion to 1,5-cz-[Ln(Lig)], Pr^III” value ([2]; after 1 hour at 80° C.) was 1%. For the same compound, the “conversion to 1,5-cz-[Ln(Lig)], Sm^III” value ([2]; after 1 week at 80° C.) was 92%, the “conversion to 1,5-cz-[Ln(Lig)], Sm^III” value ([2]; after 1 hour at 80° C.) was 5% and the “conversion to 1,5-cz-[Ln(Lig)], Tb^III” value ([2]; after 1 week at 80° C.) was 94%. The “conversion to 1,5-cz-[Ln(Lig)], Tb^III” value ([2]; after 1 hour at 80° C.) was 14%, the “conversion to 1,5-cz-[Ln(Lig)], Tm^III” value ([2]; after 1 week at 80° C.) was 96% and the “conversion to 1,5-cz-[Ln(Lig)], Tm^III” value ([2]; after 1 hour at 80° C.) was 63%. For the same compound, the “conversion to 1,5-cz-[Ln(Lig)], Yb^III” value ([2]; after 1 week at 80° C.) was 97% and the “conversion to 1,5-cz-[Ln(Lig)], Yb^III” value ([2]; after 1 hour at 80° C.) was 75%.

— patent publication US20250147039A1, “Compounds for complexation of rare earth elements and/or s-, p-, d- block metals, their coordination compounds, peptide conjugates, method of their preparation and use thereof” (USTAV ORGANICKE CHEMIE A BIOCHEMIE AV CR V.V.I., priority 2021, published 2025)
